Data: patent US7928060B2, “Amylin family polypeptide-6 (AFP-6) analogs and methods of making and using them” (Amylin Pharmaceuticals, Inc., priority 2004, dated 2011)
pEC50, pIC50: −log10 of the molar value. Read-outs that look alike come from different tables or passages of the source. Bridge positions count the residues as written; N and C are the ends. Ends that are not written are not given here. Peptide text beside a SMILES is read from it.

Legend:
[1] = system: calcitonin receptor; experiment: cAMP production in CHO cells (AlphaScreen); format: cell-based; conditions: CHO, 30,000 cells/well
[2] = biological target: adrenomedullin receptor (Homo sapiens, UniProt O60895+Q16602); experiment: adrenomedullin (ADM) receptor binding assay; conditions: Table 6
[3] = biological target: T1, calcitonin receptor (Rattus norvegicus, UniProt P32214); experiment: calcitonin receptor binding assay (rCalcitonin RBA); conditions: Table 6; read-out: CT receptor binding
T1 sequence (P32214 25-516): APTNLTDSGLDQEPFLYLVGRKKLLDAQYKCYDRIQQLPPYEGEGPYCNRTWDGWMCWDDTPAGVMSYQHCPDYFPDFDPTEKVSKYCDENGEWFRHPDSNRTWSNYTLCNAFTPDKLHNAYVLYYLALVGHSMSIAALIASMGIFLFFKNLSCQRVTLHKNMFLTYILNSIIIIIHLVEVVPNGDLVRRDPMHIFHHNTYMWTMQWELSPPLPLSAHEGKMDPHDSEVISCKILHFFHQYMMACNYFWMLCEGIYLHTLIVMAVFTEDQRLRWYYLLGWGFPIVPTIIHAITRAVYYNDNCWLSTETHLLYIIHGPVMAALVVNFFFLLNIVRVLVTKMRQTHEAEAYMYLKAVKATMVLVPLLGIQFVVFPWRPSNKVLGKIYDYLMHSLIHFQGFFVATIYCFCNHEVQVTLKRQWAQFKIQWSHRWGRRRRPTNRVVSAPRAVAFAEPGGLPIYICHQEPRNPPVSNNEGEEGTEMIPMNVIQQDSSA

[4] = biological target: T2, amylin receptors (Rattus norvegicus, UniProt P32214); experiment: amylin radioligand binding assay (125I-rat amylin, nucleus accumbens membranes); conditions: Table 6; read-out: Amylin receptor binding
T2 construct: This basal forebrain tissue, containing the nucleus accumbens and surrounding regions, was weighed and homogenized; from tissue; host or cells: rat basal forebrain (nucleus accumbens) membranes, male Sprague-Dawley rats
T2 sequence (P32214 25-516): T1 sequence (P32214 25-516)
Experimental: Unlabeled peptides were obtained from BACHEM Inc. (Torrance, Calif.).
Male Sprague-Dawley® rats (200-250) grams were sacrificed by decapitation. Brains were removed and place in cold phosphate-buffered saline (PBS). From the ventral surface, cuts were made rostral to the hypothalamus, bounded laterally by the olfactory tracts and extending at a 45° angle medially from these tracts. […] Membranes were washed three times in fresh buffer by centrifugation for 15 minutes at 48,000×g. The final membrane pellet was resuspended in 20 mM HEPES buffer containing 0.2 mM phenylmethylsulfonyl fluoride (PMSF).
Solutions were incubated for 60 minutes at 2 C. […] Filters were washed immediately before filtration with 5 ml cold PBS, and immediately after filtration with 15 ml cold PBS. […] Competition curves were generated by measuring binding in the presence of 10^−12 to 10^−6 M unlabeled test compound and were analyzed by nonlinear regression using a 4-parameter logistic equation (INPLOT program; […] Software, San Diego, Calif.).

adrenomedullin receptor, sequence (Q16602 23-461): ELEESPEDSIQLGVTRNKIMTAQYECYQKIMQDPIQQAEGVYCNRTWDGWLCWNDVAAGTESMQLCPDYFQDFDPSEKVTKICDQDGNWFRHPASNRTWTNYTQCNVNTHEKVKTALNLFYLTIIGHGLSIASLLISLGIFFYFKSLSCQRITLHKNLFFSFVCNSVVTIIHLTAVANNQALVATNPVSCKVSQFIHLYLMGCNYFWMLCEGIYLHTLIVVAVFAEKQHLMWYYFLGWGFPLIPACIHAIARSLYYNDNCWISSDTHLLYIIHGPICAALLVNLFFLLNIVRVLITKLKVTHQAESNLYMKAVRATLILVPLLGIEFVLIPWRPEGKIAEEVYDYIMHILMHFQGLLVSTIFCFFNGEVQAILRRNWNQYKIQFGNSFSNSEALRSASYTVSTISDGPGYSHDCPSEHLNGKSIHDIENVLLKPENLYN
adrenomedullin receptor, sequence (O60895 43-175): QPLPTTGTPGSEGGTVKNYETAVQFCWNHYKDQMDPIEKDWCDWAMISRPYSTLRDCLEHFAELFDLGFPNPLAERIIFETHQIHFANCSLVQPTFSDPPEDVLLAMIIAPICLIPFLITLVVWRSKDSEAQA

Molecule | pEC50 ([1]; average of three experiments, read-out: Average EC50) | pEC50 ([1]; read-out: Experiment 1 EC50) | pEC50 ([1]; read-out: Experiment 2 EC50) | pEC50 ([1]; read-out: Experiment 3 EC50) | pIC50 [2] | pIC50 [3] | pIC50 [4]
CC[C@H](C)[C@H](NC(=O)[C@H](C)NC(=O)[C@@H](NC(=O)[C@H](CCC(N)=O)NC(=O)[C@@H]1CCCN1C(=O)[C@H](Cc1ccccc1)NC(=O)[C@@H](NC(=O)[C@H](Cc1c[nH]cn1)NC(=O)[C@H](Cc1ccccc1)NC(=O)[C@H](CCCCN)NC(=O)[C@H](CC(N)=O)NC(=O)[C@H](Cc1ccccc1)NC(=O)[C@H](CC(=O)O)NC(=O)[C@H](CCC(N)=O)NC(=O)[C@@H](NC(=O)[C@H](Cc1ccc(O)cc1)NC(=O)[C@@H](NC(=O)CNC(=O)[C@H](CC(C)C)NC(=O)[C@H](CCSC)NC(=O)[C@@H]1CSSC[C@H](N)C(=O)NCC(=O)N[C@@H](CC(N)=O)C(=O)N[C@@H](CC(C)C)C(=O)N[C@@H](CO)C(=O)N[C@@H]([C@@H](C)O)C(=O)N1)[C@@H](C)O)[C@@H](C)O)[C@@H](C)O)[C@@H](C)O)C(=O)NCC(=O)N[C@H](C(=O)NCC(=O)N[C@@H](C)C(=O)N1CCC[C@H]1C(N)=O)C(C)C [SEQ ID NO: 6] | 10.01 | 10.11 | 9.85 | 10.12 | – | – | –
CSCC[C@H](NC(=O)[C@H](CC(C)C)NC(=O)[C@H](CCC(N)=O)NC(=O)[C@H](Cc1c[nH]c2ccccc12)NC(=O)[C@H](CC(C)C)NC(=O)[C@H](CCCNC(=N)N)NC(=O)[C@H](Cc1c[nH]cn1)NC(=O)[C@H](CO)NC(=O)[C@H](CC(C)C)NC(=O)[C@H](CC(N)=O)NC(=O)[C@H](CCC(N)=O)NC(=O)[C@@H](NC(=O)[C@H](CCC(N)=O)NC(=O)[C@@H]1CSSC[C@H](NC(=O)CNC(=O)[C@@H](N)C(C)C)C(=O)N[C@@H](C(C)C)C(=O)N[C@@H](CC(C)C)C(=O)NCC(=O)N[C@@H]([C@@H](C)O)C(=O)N1)C(C)C)C(=O)NCC(=O)N1CCC[C@H]1C(=O)N[C@@H](C)C(=O)NCC(=O)N[C@@H](CCCNC(=N)N)C(=O)N[C@@H](CCC(N)=O)C(=O)N[C@@H](CC(=O)O)C(=O)N[C@@H](CO)C(=O)N[C@@H](C)C(=O)N1CCC[C@H]1C(=O)N[C@H](C(=O)N[C@@H](CC(=O)O)C(=O)N1CCC[C@H]1C(=O)N[C@@H](CO)C(=O)N[C@@H](CO)C(=O)N1CCC[C@H]1C(=O)N[C@@H](Cc1c[nH]cn1)C(=O)N[C@@H](CO)C(=O)N[C@@H](Cc1ccc(O)cc1)C(N)=O)C(C)C [compound 2] | – | – | – | – | 8.19 | 7.62 | 7.92
CSCC[C@H](NC(=O)[C@H](CC(C)C)NC(=O)[C@H](CCC(N)=O)NC(=O)[C@H](Cc1c[nH]c2ccccc12)NC(=O)[C@H](CC(C)C)NC(=O)[C@H](CCCNC(=N)N)NC(=O)[C@H](Cc1c[nH]cn1)NC(=O)[C@H](CO)NC(=O)[C@H](CC(C)C)NC(=O)[C@H](CC(N)=O)NC(=O)[C@H](CCC(N)=O)NC(=O)[C@@H](NC(=O)[C@H](CCC(N)=O)NC(=O)[C@@H]1CSSC[C@H](NC(=O)CNC(=O)[C@@H](N)C(C)C)C(=O)N[C@@H](C(C)C)C(=O)N[C@@H](CC(C)C)C(=O)NCC(=O)N[C@@H]([C@@H](C)O)C(=O)N1)C(C)C)C(=O)NCC(=O)N1CCC[C@H]1C(=O)N[C@@H](C)C(=O)NCC(=O)N[C@@H](CCCNC(=N)N)C(=O)N[C@@H](CCC(N)=O)C(=O)N[C@@H](CC(=O)O)C(=O)N[C@@H](CO)C(=O)N[C@@H](C)C(=O)N1CCC[C@H]1C(=O)N[C@H](C(=O)N[C@@H](CCC(=O)O)C(=O)N1CCC[C@H]1C(=O)N[C@@H](CO)C(=O)N[C@@H](CO)C(=O)N1CCC[C@H]1C(=O)N[C@@H](Cc1c[nH]cn1)C(=O)N[C@@H](CO)C(=O)N[C@@H](Cc1ccc(O)cc1)C(N)=O)C(C)C [compound 35] (H-VGCVLGTCQVQNLSHRLWQLMGPAGRQDSAPVEPSSPHSY-NH2; disulfide 3-8 (inferred)) | – | – | – | – | 7.43 | 6.82 | 7.77
CC(C)C[C@H](NC(=O)[C@H](CCC(N)=O)NC(=O)[C@H](Cc1c[nH]c2ccccc12)NC(=O)[C@H](CC(C)C)NC(=O)[C@H](CCCNC(=N)N)NC(=O)[C@H](Cc1c[nH]cn1)NC(=O)[C@H](CO)NC(=O)[C@H](CC(C)C)NC(=O)[C@H](CC(N)=O)NC(=O)[C@H](CCC(N)=O)NC(=O)[C@@H](NC(=O)[C@H](CCC(N)=O)NC(=O)[C@@H]1CSSC[C@H](NC(=O)CNC(=O)[C@@H](N)C(C)C)C(=O)N[C@@H](C(C)C)C(=O)N[C@@H](CC(C)C)C(=O)NCC(=O)N[C@@H]([C@@H](C)O)C(=O)N1)C(C)C)C(=O)N[C@@H](CCCNC(=N)N)C(=O)N[C@@H](CCC(N)=O)C(=O)N[C@@H](CC(=O)O)C(=O)N[C@@H](CO)C(=O)N[C@@H](C)C(=O)N1CCC[C@H]1C(=O)N[C@H](C(=O)N[C@@H](CCC(=O)O)C(=O)N1CCC[C@H]1C(=O)N[C@@H](CO)C(=O)N[C@@H](CO)C(=O)N1CCC[C@H]1C(=O)N[C@@H](Cc1c[nH]cn1)C(=O)N[C@@H](CO)C(=O)N[C@@H](Cc1ccc(O)cc1)C(N)=O)C(C)C [compound 36] (H-VGCVLGTCQVQNLSHRLWQLRQDSAPVEPSSPHSY-NH2; disulfide 3-8 (inferred)) | – | – | – | – | ≤ 6.00 | 6.70 | 7.41
CC(C)C[C@H](NC(=O)[C@H](CCC(N)=O)NC(=O)[C@H](Cc1c[nH]c2ccccc12)NC(=O)[C@H](CC(C)C)NC(=O)[C@H](CCCNC(=N)N)NC(=O)[C@H](Cc1c[nH]cn1)NC(=O)[C@H](CO)NC(=O)[C@H](CC(C)C)NC(=O)[C@H](CC(N)=O)NC(=O)[C@H](CCC(N)=O)NC(=O)[C@@H](NC(=O)[C@H](CCC(N)=O)NC(=O)[C@@H]1CSSC[C@H](NC(=O)CN)C(=O)N[C@@H](CC(N)=O)C(=O)N[C@@H]([C@@H](C)O)C(=O)N[C@@H](C)C(=O)N[C@@H]([C@@H](C)O)C(=O)N1)C(C)C)C(=O)N[C@@H](CCCNC(=N)N)C(=O)N[C@@H](CCC(N)=O)C(=O)N[C@@H](CC(=O)O)C(=O)N[C@@H](CO)C(=O)N[C@@H](C)C(=O)N1CCC[C@H]1C(=O)N[C@H](C(=O)N[C@@H](CCC(=O)O)C(=O)N1CCC[C@H]1C(=O)N[C@@H](CO)C(=O)N[C@@H](CO)C(=O)N1CCC[C@H]1C(=O)N[C@@H](Cc1c[nH]cn1)C(=O)N[C@@H](CO)C(=O)N[C@@H](Cc1ccc(O)cc1)C(N)=O)C(C)C [compound 37] (H-GCNTATCQVQNLSHRLWQLRQDSAPVEPSSPHSY-NH2; disulfide 2-7 (inferred); N-terminus assumed) | – | – | – | – | ≤ 6.00 | 6.92 | 7.41
TQAQLLRVGCNTATCQVQNLSHRLWQLMGPAGRQDSAPVDPSSPHSY-NH2 (disulfide 10-15 (inferred)) [compound 21] | – | – | – | – | 7.33 | 7.77 | –
TQAQLLRVGCVLGTCQVQNLSHRLWQLMGPAGRQESAPVEPSSPHSY-NH2 (disulfide 10-15 (inferred)) [compound 32] | – | – | – | – | 8.15 | – | 7.80
TQAQLLRVGCVLGTCQVQNLSHRLWQLRQDSAPVDPSSPHSY-NH2 (disulfide 10-15 (inferred)) [compound 16] | – | – | – | – | ≤ 6.00 | 7.66 | –
